Columns and labels:
Type in all cases: cell-based
SK-OV-3 cells [1] = test: FAK silencing combined with Docetaxel, Annexin V apoptosis by flow cytometry; settings: SK-OV-3 cells transfected with FAK siRNA 50 nM for 24 hours, then 0.3 µM or 1 µM Docetaxel 48 hours; FAK silencing group compared with control siRNA group
SK-OV-3 cells [2] = test: FAK silencing combined with Docetaxel, Calreticulin (ICD target) by flow cytometry; settings: SK-OV-3 cells transfected with FAK siRNA 50 nM for 24 hours, then 1 µM Docetaxel 48 hours; vs control siRNA
Protocol: • 1. FAK silencing combined with Docetaxel promotes apoptosis of ovarian cancer cells […] The siRNA technology was used in the in vitro assay to reduce the expression level of FAK, and combined with Docetaxel for 48 hours; flow cytometry was used to detect apoptosis in control (DMSO) and FAK silenced cells • 2. FAK silencing combined with Docetaxel can effectively promote the production of ICD in ovarian cancer cells SK-OV-3 The siRNA technology was used in the in vitro assay to reduce the expression level of FAK, and combined with Docetaxel for 48 hours. Flow cytometry was used to detect the expression of Calreticulin, the main target of ICD.
Assay antibodies: recombinant Alexa Fluor® 647 fluorescent Anti-Calreticulin antibody (Abcam, ab196159), Annexin V apoptosis detection kit (Invitrogen, A35110).
FAK siRNA was provided by Gene Pharma, and the sequence is shown in the following table: • F: […]; • R: […]
• 1. […] After the transfection for 24 hours, the cells were treated with 0.3 µM or 1 µM of Docetaxel for 48 hours, respectively. The cells were stained using Annexin V kit and detected by flow cytometry. The apoptotic values were counted, compared with those of the control group, and plotted using Graphpad 8.0. […] The cells were fluorescent stained with Calreticulin antibody, and the staining results were analyzed by flow cytometry.

colon cancer CT26 cells = test: CCK8 cell viability assay, Docetaxel with or without IN10018; settings: Mus musculus, 72 hours, Docetaxel alone
Protocol: CT26 cells were cultured with RPMI-1640 (Shanghai Basalmedia, catalog number: L210KJ, batch number: F210916) + 10% FBS (Gibco, catalog number: 10099-141c, batch number: 2158737cp), and passaged twice. When the cells were in good condition, they were placed in a 96-well plate, 3000 cells/well. After the cells were spread for 24 hours, the culture medium containing Docetaxel was added. 10 drug concentrations were set. The first concentration was 30 µM, which was serially diluted 3-fold, and the last one was the control, with the drug concentration of 0. Three compound wells were set for each drug concentration. At the same time, another group of cells was established with the same drug concentration as that in the above method. The difference was that: 5 µM IN10018 was added to each well, the drugs were mixed, and the plate was cultured in a 5% CO2 incubator at 37 °C for 72 hours.
After 72 hours of drug action, the cells were observed under a microscope. 10 µl of CCK8 detection reagent (Cellorlab, classification number: CX001M, batch number: 2571100) was added to each well, and the plate was incubated in a 5% CO2 incubator at 37 °C for 2-4 hours. Then the plate was read using microplate reader OD450 ([…]).

[3] = system: mouse breast cancer 4T1 cells; test: Docetaxel/Eribulin and Defactinib: microscopy and CRT/Annexin-V/PI flow cytometry; settings: 48 hours, Defactinib 5 µM, Docetaxel 0.3 µM, Eribulin 0.1 µM, alone or combined with Defactinib
Protocol: 4T1 cells were cultured in a monolayer in vitro in RPMI-1640 medium with 10% fetal bovine serum in a 37 °C, 5% CO2 incubator. Trypsin was used for routine digestion and passage treatment two to three times a week. When the cells were in the exponential growth phase and the adherent confluence reached 80%-90%, the cells were harvested and plated.
4T1 cells were digested with trypsin, and then the cells were collected and counted. Based on the counting results, the cells were diluted with the corresponding complete culture medium to a concentration of 50,000 cells per milliliter. Then the cells were plated in 12-well cell culture plates, with 2 ml of cell suspension per well, i.e., 100,000 cells.
After plating, the cells were cultured in a 37°C and 5% CO2 incubator.
After 24 hours of plating, the test compounds Defactinib, Docetaxel and Eribulin were added to different wells, respectively.
After 48 hours of drug action, the cells were photographed using a microscope, and then trypsinized and collected for flow cytometry staining.
The cells were washed twice with flow buffer (DPBS + 2% FBS). 0.5 µL of AF647 Anti-Calreticulin Antibody was added to each well, and mixed well. The cells were incubated at 4°C in the dark for 20 min. […]
After the assay, the cell positive rate was analyzed by Flowjo (V10) software.

**Q.** `CC(=O)O[C@@]12CO[C@@H]1C[C@H](O)[C@@]1(C)C(=O)[C@H](O)C3=C(C)[C@@H](OC(=O)[C@H](O)[C@@H](NC(=O)OC(C)(C)C)c4ccccc4)C[C@@](O)([C@@H](OC(=O)c4ccccc4)[C@H]21)C3(C)C` [Docetaxel] was tested. Which “apoptosis (Annexin V kit)” value (SK-OV-3 cells [1]) did it give?
**A.** Its value is “significantly enhanced”.

**Q.** What about the “release and exposure of Calreticulin” value (SK-OV-3 cells [2]) of the same compound?
**A.** Its value is “significantly enhanced”.

**Q.** What about the IC50 (colon cancer CT26 cells) of the same compound?
**A.** Its IC50 is 190 nM.

**Q.** And the “cell status (cell death) under a microscope” value [3]?
**A.** The value was “obvious”.
